Several values for one entry are separate records, joined by “and”; a condition that tells them apart may be missing. Equal entries are not always repeated.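 How tested: cells in 96-well plates exposed to compound for 48 hours at five concentrations. GI50: concentration for 50% inhibition of growth. TGI: total growth inhibition.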 Bounds are passed on as bounds.

Some test systems named below: RPMI-8226 leukemia; SK-MEL-2 melanoma; RXF 393 renal; NCI-H23 lung; UO-31 renal; UACC-62 melanoma; OVCAR-8 ovarian; MALME-3M melanoma; CCRF-CEM leukemia; OVCAR-4 ovarian.
Common to all, as to experiment: DTP human tumour cell line panel, 48 h

Turning to `COC(=O)C1=C(C(=O)OC)C23C=C(C)C1C2=C(C)C1(CC1)[C@@](C)(O)C3=O` (some centres undefined), the GI50 (as a rule, the concentration at which growth is held to half of that of the control) with RPMI-8226 leukemia is 7.36 µM; in the experiment with SK-MEL-2 melanoma it was 0.25 µM; in the experiment on RXF 393 renal, 0.179 µM; with NCI-H23 lung, 170 nM; with UO-31 renal, 185 nM; in the experiment on UACC-62 melanoma, 259 nM. Moreover, the GI50 was 359 nM with OVCAR-8 ovarian, 0.449 µM in the experiment with MALME-3M melanoma, 4.8 µM in the experiment on CCRF-CEM leukemia and 0.484 µM with OVCAR-4 ovarian. Further, the total growth inhibition concentration (TGI) (usually the concentration giving total growth inhibition) in the experiment with RPMI-8226 leukemia was 52.6 µM; with SK-MEL-2 melanoma it was 0.63 µM; in the experiment on RXF 393 renal it was 0.341 µM; with NCI-H23 lung it was 0.851 µM; with UO-31 renal it was 0.464 µM; in the experiment with UACC-62 melanoma, 0.792 µM. Further, the concentration for total growth inhibition (TGI) in the experiment on OVCAR-8 ovarian is above 24.6 µM; in the experiment with MALME-3M melanoma it was 2.16 µM; in the experiment with CCRF-CEM leukemia, above 100 µM; with OVCAR-4 ovarian, 6.43 µM.

As for `C[C@H]1[C@H](C)CC[C@]2(C(=O)O)CC[C@]3(C)C(=CC[C@@H]4[C@@]5(C)C/C(=C/c6ccco6)C(=O)C(C)(C)[C@@H]5CC[C@]43C)[C@H]12`, the GI50 was 2.83 µM in the experiment on RPMI-8226 leukemia; 10.1 µM in the experiment on SK-MEL-2 melanoma; 4.46 µM in the experiment on RXF 393 renal; 3850 nM in the experiment with NCI-H23 lung; 2940 nM in the experiment on UO-31 renal; 2860 nM with UACC-62 melanoma. Besides, the GI50 was 4630 nM in the experiment with OVCAR-8 ovarian, 8.01 µM in the experiment with MALME-3M melanoma, 3.52 µM with CCRF-CEM leukemia and 11.8 µM with OVCAR-4 ovarian. For the same compound, the TGI in the experiment with RPMI-8226 leukemia worked out at 15.7 µM; in the experiment with SK-MEL-2 melanoma, 30.4 µM; in the experiment with RXF 393 renal, 16.3 µM; in the experiment on NCI-H23 lung it was 16.3 µM; in the experiment on UO-31 renal, 13.1 µM; with UACC-62 melanoma it was 13 µM. Moreover, the TGI with OVCAR-8 ovarian is 24.1 µM; with MALME-3M melanoma, 22.2 µM; in the experiment on CCRF-CEM leukemia, 16.8 µM; in the experiment with OVCAR-4 ovarian it was 33.8 µM.

Turning to `COC1=CC(c2ccc[nH]2)=N/C1=C\c1ccc[nH]1`, the GI50 is 0.0651 µM in the experiment with RPMI-8226 leukemia; 0.218 µM in the experiment with SK-MEL-2 melanoma; 0.378 µM in the experiment on RXF 393 renal; 2100 nM in the experiment with NCI-H23 lung; 77.8 nM with UO-31 renal; 219 nM with UACC-62 melanoma. Further, the GI50 in the experiment with OVCAR-8 ovarian is 232 nM; in the experiment on MALME-3M melanoma, 0.723 µM; in the experiment on CCRF-CEM leukemia it was 0.0231 µM; in the experiment with OVCAR-4 ovarian it was 0.316 µM. In addition, the total growth inhibition concentration (TGI) in the experiment with RPMI-8226 leukemia was 0.57 µM; with SK-MEL-2 melanoma, 0.809 µM; in the experiment on RXF 393 renal, 2.7 µM; in the experiment with NCI-H23 lung it was 19.1 µM; in the experiment on UO-31 renal, 0.339 µM; in the experiment on UACC-62 melanoma it was 0.516 µM. For the same compound, the TGI in the experiment with OVCAR-8 ovarian amounted to 20.5 µM; in the experiment on MALME-3M melanoma, 4.25 µM; in the experiment with CCRF-CEM leukemia, 14 µM; in the experiment on OVCAR-4 ovarian, 13.3 µM.

On to `Cc1ccc(S(=O)(=O)N2CCc3ccc(O)c4c3C2Cc2cc(Cl)ccc2-4)cc1` (centres undefined), for which the GI50 was 0.875 µM in the experiment with RPMI-8226 leukemia; 1.1 µM in the experiment with SK-MEL-2 melanoma; 0.83 µM in the experiment with RXF 393 renal; 864 nM with NCI-H23 lung; 1520 nM with UO-31 renal; 962 nM in the experiment with UACC-62 melanoma. Also, the GI50 in the experiment with OVCAR-8 ovarian is 1210 nM; with MALME-3M melanoma, 2.59 µM; in the experiment on CCRF-CEM leukemia, 0.922 µM; in the experiment with OVCAR-4 ovarian, 1.53 µM. The TGI in the experiment with RPMI-8226 leukemia stood at 2.6 µM; in the experiment on SK-MEL-2 melanoma, 3.41 µM; in the experiment with RXF 393 renal, 2.49 µM; with NCI-H23 lung, 3.28 µM; in the experiment with UO-31 renal it was 14.4 µM; in the experiment with UACC-62 melanoma it was 3.77 µM. Moreover, the TGI with OVCAR-8 ovarian is 5.83 µM; in the experiment on MALME-3M melanoma it was 9.62 µM; with CCRF-CEM leukemia it was 14.1 µM; in the experiment with OVCAR-4 ovarian it was 7.51 µM.

Consider `CO[C@@H]1[C@H](OC(=O)NC(=O)CCl)CC[C@]2(CO2)[C@H]1[C@@]1(C)O[C@@H]1CC=C(C)C`, for which the GI50 in the experiment with RPMI-8226 leukemia was 5.73 µM and 6.14 µM; in the experiment on SK-MEL-2 melanoma, 23 µM; in the experiment on RXF 393 renal, 4.08 µM and 23.7 µM; in the experiment on NCI-H23 lung, 2990 nM and 5940 nM; in the experiment on UO-31 renal, 16100 nM; in the experiment with UACC-62 melanoma, 6210 nM and 4010 nM. The GI50 in the experiment on MALME-3M melanoma is 4.16 µM; with CCRF-CEM leukemia, 1.98 µM and 5.49 µM; in the experiment with OVCAR-4 ovarian it was 25.9 µM. For the same compound, the TGI in the experiment on RPMI-8226 leukemia was 32.9 µM and 51.4 µM; with SK-MEL-2 melanoma, 35.5 µM and 68.6 µM; in the experiment on RXF 393 renal, 27.9 µM and 131 µM; in the experiment with NCI-H23 lung, 37 µM and 30.8 µM; with UO-31 renal it was 26.6 µM and 46.2 µM; in the experiment on UACC-62 melanoma, 26 µM and 24.1 µM. Besides, the total growth inhibition concentration (TGI) is 79.9 µM in the experiment with OVCAR-8 ovarian; 18.5 µM and 18.7 µM in the experiment with MALME-3M melanoma; 18 µM and 28.4 µM with CCRF-CEM leukemia; 39.1 µM and 176 µM with OVCAR-4 ovarian.

With `O=c1cnn2c(n1)sc1ccc3ccccc3c12`, the total growth inhibition concentration (TGI) in the experiment on RPMI-8226 leukemia, with SK-MEL-2 melanoma, in the experiment on RXF 393 renal, with NCI-H23 lung, with UO-31 renal and with UACC-62 melanoma was above 100 µM throughout. Also, the concentration for total growth inhibition (TGI) in the experiment with OVCAR-8 ovarian, in the experiment on MALME-3M melanoma, in the experiment with CCRF-CEM leukemia and in the experiment with OVCAR-4 ovarian was above 100 µM each time.

On to `COc1ccc2c(c1)CCC1C2CC[C@]2(C)/C(=N/OC(=O)Cc3ccccc3)CCC12` (some centres undefined), for which the GI50 in the experiment with RPMI-8226 leukemia is 12.4 µM; in the experiment on SK-MEL-2 melanoma, 18.6 µM; in the experiment on RXF 393 renal it was 23.3 µM; in the experiment on NCI-H23 lung, 16200 nM; with UO-31 renal, 19200 nM; with UACC-62 melanoma it was 15300 nM. Further, the GI50 in the experiment on OVCAR-8 ovarian is 23200 nM; in the experiment on MALME-3M melanoma, 20.7 µM; in the experiment with CCRF-CEM leukemia, 13.6 µM; in the experiment with OVCAR-4 ovarian it was 18.4 µM. Besides, the total growth inhibition concentration (TGI) in the experiment on RPMI-8226 leukemia came to 52.5 µM; in the experiment with SK-MEL-2 melanoma, 48.6 µM; with RXF 393 renal, 47.9 µM; in the experiment on NCI-H23 lung, 32.7 µM; in the experiment on UO-31 renal, 43.8 µM; in the experiment with UACC-62 melanoma it was 30.9 µM. For the same compound, the concentration for total growth inhibition (TGI) in the experiment on OVCAR-8 ovarian is 57.1 µM; with MALME-3M melanoma, 37.4 µM; in the experiment with CCRF-CEM leukemia, 49.9 µM; in the experiment with OVCAR-4 ovarian it was 48.5 µM.

On to `COC(=O)C(Cl)=C1CC1`, for which the total growth inhibition concentration (TGI) in the experiment on RPMI-8226 leukemia is 60.4 µM; in the experiment on SK-MEL-2 melanoma it was above 100 µM; in the experiment with RXF 393 renal it was 35.8 µM; with NCI-H23 lung it was above 100 µM; in the experiment with UO-31 renal, 89.9 µM; in the experiment with UACC-62 melanoma, above 100 µM. Moreover, the TGI was 97.9 µM in the experiment with OVCAR-8 ovarian, 46.5 µM in the experiment with MALME-3M melanoma, 42.2 µM in the experiment with CCRF-CEM leukemia and above 100 µM in the experiment with OVCAR-4 ovarian.

The values are drawn from PubChem BioAssay (NCI).
